Reference: ChEMBL document CHEMBL1136400, “Substituted bridged phenyl piperidines: orally active growth hormone secretagogues” (Bioorg Med Chem Lett, 2003)

Organism: Rattus norvegicus
Experiment: Effective concentration for their ability to release growth hormone in the rat pituitary cell assay
Format: functional, organism-based, Pituitary gland cell
Details: Rattus norvegicus, Pituitary gland cell
Work on CC(C)(N)C(=O)N[C@H](Cc1c[nH]c2ccccc12)C(=O)N1C2CCC1CC(c1ccccc1)C2 (mixture of isomers) yielded an EC50 of 62.8 nM.
CCNC(=O)c1ccccc1C1CC2CCC(C1)N2C(=O)[C@@H](CCCc1ccccc1)NC(=O)C(C)(C)N (mixture of isomers) gave an EC50 of 1.3 nM.
Cc1ccccc1C1CC2CCC(C1)N2C(=O)[C@@H](CCCc1ccccc1)NC(=O)C(C)(C)N (mixture of isomers) showed an EC50 of 78.4 nM.
With CC(C)(N)C(=O)N[C@H](CCCc1ccccc1)C(=O)N1C2CCC1CC(c1ccccc1)C2 (mixture of isomers) the EC50 was 24 nM.
Work on Cc1ccccc1C1CC2CCC(C1)N2C(=O)[C@@H](Cc1c[nH]c2ccccc12)NC(=O)C(C)(C)N (mixture of isomers) yielded an EC50 of 33.2 nM.
Work on CC(C)(N)C(=O)N[C@H](COCc1ccccc1)C(=O)N1CCC2(CC1)CN(S(C)(=O)=O)c1ccccc12 [IBUTAMOREN] yielded an EC50 of 1 nM.

Same assay, conditions: pituitary gland cell
With CCOC(=O)c1ccccc1C1CC2CCC(C1)N2C(=O)[C@@H](CCCc1ccccc1)NC(=O)C(C)(C)N (mixture of isomers) the EC50 was 90 nM.
Work on CCOC(=O)c1ccccc1C1CC2CCC(C1)N2C(=O)[C@@H](CCCc1ccccc1)NC(=O)C(C)(C)N (stereo in doubt; 26f) yielded an EC50 of 48 nM.
Work on CC(C)(N)C(=O)N[C@H](CCCc1ccccc1)C(=O)N1C2CCC1CC(c1ccccc1C(=O)O)C2 (stereo in doubt; 26g) yielded an EC50 of 9.6 nM.
Compound CCOC(=O)c1ccccc1C1CC2CCC(C1)N2C(=O)[C@@H](CCCc1ccccc1)NC(=O)C(C)(C)N (stereo in doubt; 26h) has an EC50 of 324 nM.
With CC(C)(N)C(=O)N[C@H](CCCc1ccccc1)C(=O)N1C2CCC1CC(c1ccccc1C(=O)O)C2 (stereo in doubt; 26i) the EC50 was > 500 nM.
